Square brackets hold non-standard residues; d marks the D form. Peptide text beside a SMILES is read from it. * marks the point of attachment. Sta = CC(C)C[C@H](N)[C@@H](O)CC(=O)O; Isovaleryl = CC(C)CC(=O)*
How the values were obtained:
[1] = system: enzyme preparation TCES (protease TCES); experiment: Effects of various reagents on enzyme preparation TCES; assay type: biochemical, Thermococcus celer; details: for effect of reagent on activity of TCES, in words: 37° C., 30 minutes, 1 mM reagent; for enzyme activity of TCES after treatment with reagent, compared with control (no reagent): treated at 37° C. for 30 minutes, reagent final concentration 1 mM, control 100%
Procedure: (§1) The enzyme activity of the enzyme preparation TC-3 obtained in the present invention can be measured using as a substrate Suc-Leu-Leu-Val-Tyr-MCA (SEQ ID NO:43) (manufactured by Peptide Laboratory). That is, the enzyme preparation to be detected for the enzyme activity is appropriately diluted, to 20 μl of the solution is added 80 μl of a 0.1M sodium phosphate buffer (pH 7.0) containing 62.5 μM Suc-Leu-Leu-Val-Tyr-MCA (SEQ ID NO:43), followed by incubating at 75° C. for 30 minutes. After the reaction is stopped by the addition of 20 μl of 30% acetic acid, the fluorescent intensity is measured at the excitation wavelength of 355 nm and the fluorescence wavelength of 460 nm to quantitate an amount of the generated 7-amino-4-methylcoumarin, and the resulting value is compared with that obtained when incubating without the addition of the enzyme preparation, to investigate the enzyme activity.
(§2) The effects of various reagents on the enzyme preparations TCES and NAPS-1 obtained by the present invention were investigated. That is, the above enzyme preparations were treated at 37° C. for 30 minutes in the presence of the various reagents at the final concentration of 1 mM, and an aliquot thereof was taken to determine the enzyme activity by the method described in the above (2) to compare with that (control) when no reagent was added.

[2] = system: enzyme preparation NAPS-1 (protease PFUS); experiment: Effects of various reagents on enzyme preparation NAPS-1; assay type: biochemical, Pyrococcus furiosus; details: for effect of reagent on activity of NAPS-1, in words: 37° C., 30 minutes, 1 mM reagent; for enzyme activity of NAPS-1 after treatment with reagent, compared with control (no reagent): treated at 37° C. for 30 minutes, reagent final concentration 1 mM, control 100%
Procedure: (§3) In addition, the enzyme activity of the enzyme preparations NP-1, PT-1, NAPS-1 and NAPS-LS can be photometrically measured using Suc-Ala-Ala-Pro-Phe-p-NA (SEQ ID NO:44) (manufactured by Sigma) as a substrate. That is, an enzyme preparation to be detected for the enzyme activity was appropriately diluted, to 50 μl of the solution was added 50 μl of a 0.1M potassium phosphate buffer (pH 7.0) containing Suc-Ala-Ala-Pro-Phe-p-NA (SEQ ID NO:44) (Suc-Ala-Ala-Pro-Phe-p-NA(SEQ ID NO:44) solution), followed by incubating at 95° C. for 30 minutes. After the reaction was stopped by ice-cooling, the absorbance at 405 nm was measured to quantitate an amount of the generated p-nitroaniline, and the resulting value was compared with that when incubating without the addition of the enzyme preparation, to investigate the enzyme activity. Upon this, a 0.2 mM solution of Suc-Ala-Ala-Pro-Phe-p-NA (SEQ ID NO:44) was used for the enzyme preparations NP-1 and PT-1 and a 1 mM solution was used for the enzyme preparations NAPS-1 and NAPS-1S.
as §2

[3] = system: Suc-Ala-Ala-Pro-Phe-p-NA; experiment: Suc-Ala-Ala-Pro-Phe-p-NA hydrolyzing activity (absorbance at 405 nm); assay type: biochemical; details: pH 7.0 and 95° C., 30 minutes
Procedure: as §3, with “Upon this, a 0.2 mM solution of Suc-Ala-Ala-Pro-Phe-p-NA (SEQ ID NO:44) was used for the enzyme preparations NP-1 and PT-1 and a 1 mM solution was used for the enzyme preparations NAPS-1 and NAPS-1S.” left out
(§4) The activity of the enzyme preparations obtained in the present invention on the synthetic peptide substrates is confirmed by a method for measuring the enzyme activity described in the above (2). […] In addition, the activity of the enzyme preparations obtained in the present invention on gelatin can be detected by confirming the degradation of gelatin by an enzyme on the SDS-polyacrylamide gel. […]

[4] = system: gelatin; experiment: Gelatin degradation on gelatin-containing SDS-polyacrylamide gel; assay type: biochemical; details: gel with 0.05% gelatin, pH 7.0, 95° C., 3 hours
Description: The activity of the enzyme preparations obtained in the present invention on the synthetic peptide substrates is confirmed by a method for measuring the enzyme activity described in the above (2). That is, the enzyme preparation TC-3 obtained in the present invention has the Suc-Leu-Leu-Val-Tyr-MCA (SEQ ID NO:43) hydrlyzing activity, and the enzyme preparations NP-1, PT-1, NAPS-1 and NAPS-1A have the Suc-Ala-Ala-Pro-Phe-p-NA (SEQ ID NO:44) hydrlyzing activity, respectively. […] In addition, the activity of the enzyme preparations obtained in the present invention on gelatin can be detected by confirming the degradation of gelatin by an enzyme on the SDS-polyacrylamide gel. That is, the enzyme preparation to be detected for the enzyme activity was appropriately diluted, to 10 μl of the sample solution was added 2.5 μl of a sample buffer (50 mM Tris-HCl, pH 7.5, 5% SDS, 5% 2-mercaptoethanol, 0.005% Bromophenol Blue. 50% glycerol), followed by treatment at 100° C. for 5 minutes and electrophoresis using 0.1% SDS-10% polyacrylamide gel containing 0.05% gelatin. […] The presence of the protease activity was detected by the fact that gelatin is hydrolyzed by a protease into peptides which are diffused out of the gel and, consequently, the relevant portion of the gel was not stained with Coomassie Brilliant Blue.

[5] = system: Suc-Leu-Leu-Val-Tyr-MCA; experiment: Suc-Leu-Leu-Val-Tyr-MCA hydrolyzing activity (fluorescence); assay type: biochemical; details: pH 7.0 and 75° C., 30 minutes
Procedure: as §1, §4

[6] = Thermostability of enzyme preparation (residual activity after heat-treatment); assay type: physicochemical; details: 80° C., 20 mM Tris-HCl pH 7.5, 3 hours
Procedure: The thermostability of the enzyme preparation TC-3 obtained by the present invention was investigated. That is, the enzyme preparation was incubated at 80° C. in 20 mM Tris-HCl, pH 7.5 for various periods of time, an appropriate amount thereof was taken to measure the enzyme activity by the method shown in the above (2), and the activity was compared with that when not heat-treated.
In addition, the thermostability of the enzyme preparation NP-1 obtained in the present invention was investigated. That is, the enzyme preparation was incubated at 95° C. in 20 mM Tris-HCl, pH 7.5 for various periods of time, an appropriate aliquot was taken to determine the enzyme activity by the method shown in the above (2), and the enzyme activity was compared with that when not heat-treated. […] This is considered to be because a protease produced as a precursor causes the self-catalytic activation during the heat-treatment.
In addition, the above enzyme preparation NP-1 activated by the heat-treatment was investigated for the thermostability. That is, the enzyme preparation NP-1 was activated by the heat-treatment at 95° C. for 30 minutes, incubated at 95° C. for various periods of time, and the activity was determined as described above to compare with that when not heat-treated. […]

[7] = system: casein; experiment: Casein degradation on casein-containing SDS-polyacrylamide gel; assay type: biochemical; details: gel with 0.05% casein, 95° C.

Row | Molecule | enzyme activity of TCES after treatment with reagent, compared with control (no reagent) [1] [%] | effect of reagent on activity of NAPS-1, in words [2] | enzyme activity of NAPS-1 after treatment with reagent, compared with control (no reagent) [2] [%] | also measured
1 | CC(C)C[C@H](NC(=O)[C@@H](NC(=O)N[C@@H](Cc1ccccc1)C(=O)O)[C@@H]1CCN=C(N)N1)C(=O)N[C@H](C=O)Cc1ccccc1 [Chymostatin] | 0 | remarkably decreased activity | 6.6 | effect of reagent on activity of TCES, in words [1]: remarkably decreased activity
2 | O=C(O)CN(CCN(CC(=O)O)CC(=O)O)CC(=O)O [EDTA] | 103.5 | the decrease in the activity was observed | 36.1 | –
3 | CC(=O)N[C@@H](CC(C)C)C(=O)N[C@@H](CC(C)C)C(=O)N[C@H](C=O)CCCNC(=N)N [Leupeptin] | 104.5 | – | 89.3 | –
4 | CCN1C(=O)C=CC1=O [N-ethylmaleimide] | 82.6 | – | 102.6 | –
5 | O=S(=O)(F)Cc1ccccc1 [PMSF, phenylmethanesulfonyl fluoride] | 8.1 | remarkably decreased activity | 0.1 | effect of reagent on activity of TCES, in words [1]: remarkably decreased activity
6 | CC(C)CC(=O)N[C@H](C(=O)N[C@H](C(=O)N[C@@H](CC(C)C)[C@@H](O)CC(=O)N[C@@H](C)C(=O)N[C@@H](CC(C)C)[C@@H](O)CC(=O)O)C(C)C)C(C)C [Pepstatin] (Isovaleryl-VV[Sta]A[Sta]-OH) | 105.2 | – | 100.7 | –
7 | TC-3: crude enzyme preparation of protease TCES (Thermococcus celer) obtained from Bacillus subtilis DB104/pSTC3 (protein) MKRLGAVVLALVLVGLLAGTALAAPVKPVVRNNAVQQKNYGLLTPGLFKKVQRMNWNQEVDTVIMFGSYGDRDRAVKVLRLMGAQVKYSYKIIPAVAVKIKARDLLLIAGMIDTGYFGNTRVSGIKFIQEDYKVQVDDATSVSQIGADTVWNSLGYDGSGVVVAIVDTGIDANHPDLKGKVIGWYDAVNGRSTPYDDQGHGTHVAGIVAGTGSVNSQYIGVAPGAKLVGVKVLGADGSGSVSTIIAGVDWVVQNKDKYGIRVINLSLGSSQSSDGTDSLSQAVNNAWDAGIVVCVAAGNSGPNTYTVGSPAAASKVITVGAVDSNDNIASFSSRGPTADGRLKPEVVAPGVDIIAPRASGTSMGTPINDYYTKASGTSMATPHVSGVGALILQAHPSWTPDKVKTALIETADIVAPKEIADIAYGAGRVNVYKAIKYDDYAKLTFTGSVADKGSATHTFDVSGATFVTATLYWDTGSSDIDLYLYDPNGNEVDYSYTAYYGFEKVGYYNPTAGTWTVKVVSYKGAANYQVDVVSDGSLSQSGGGNPNPNPNPNPTPTTDTQTFTGSVNDYWDTSDTFTMNVNSGATKITGDLTFDTSYNDLDLYLYDPNGNLVDRSTSSNSYEHVEYANPAPGTWTFLVYAYSTYGWADYQLKAVVYYG | – | – | – | Suc-Ala-Ala-Pro-Phe-p-NA hydrolyzing activity [3]: the activity to degrade the substrate was recognized; gelatin hydrolyzing activity [4]: had the gelatin hydrolyzing activity; Suc-Leu-Leu-Val-Tyr-MCA hydrolyzing activity [5]: had the Suc-Leu-Leu-Val-Tyr-MCA (SEQ ID NO:43) hydrolyzing activity; residual activity after heat-treatment [6]: not less than 90%; casein hydrolyzing activity (gel) [7]: had the casein hydrolyzing activity

From patent US7314744B2, “Hyperthermostable protease gene” (Takara Bio Inc., priority 1995, dated 2008)
